Reference: patent US20210317102A1, “INHIBITORS OF INTEGRATED STRESS RESPONSE PATHWAY” (Praxis Biotech LLC, priority 2019, published 2021)

Experiments:
[1] = tested on: ATF4 expression, HEK293T cells carrying the ATF4 luciferase reporter; assay: ATF4 expression inhibition assay (ATF4 luciferase reporter); type: cell-based; details: Homo sapiens, HEK-293T, 100 nM thapsigargin, 3 hours
Method: The ATF4 reporter was prepared by fusing the human full length 5′UTR of ATF4 (NCBI Accession No. BC022088.2) upstream of the firefly luciferase coding sequence lacking the initiator methionine. The fused sequence was cloned into pLenti-EFla-C-Myc-DDK-IRES-Puro cloning vector (Origen #PS100085) using standard methods. Virus production was carried out by using Lenti-X™ Packaging Single Shots Protocol (Clonetech #631276). Viral particles were used to transduce HEK293T cells (ATCC #CRL-3216, ATCC Manassas, Va.), which were subsequently selected with puromycin to generate stable cell line. Cells were maintained at 37° C. and 5% CO2 in DMEM-F12 (Hyclone #SH30023.02) supplemented with 10% heat-inactivated fetal bovine serum (Gibco #16000-044), 2 mM L-glutamine (Gibco #25030-081), 100 U/ml penicillin, and 100 μg/ml streptomycin (Gibco #^15140-122).
HEK293T cells carrying the ATF4 luciferase reporter were plated on 96-well plates (Nunc) at 10,000 cells per well. Cells were treated two days after seeding with 100 nM thapsigargin (Tg) (Sigma-Aldrich #T9033) in the presence of different concentrations of selected compounds ranging from 1 nM to 10 μM. Cells without treatment or cells treated with Tg alone were used as controls. Assay plates containing cells were incubated for 3 hours at 37° C.
Luciferase reactions were performed using Luciferase Assay System (Promega #E1501) as specified by the manufacturer. Luminescence was read with an integration time of 1 s and a gain of 110 using a Cytation-5 multi-mode microplate reader (BioTek). Relative luminescence units were normalized to Tg treatment (0% inhibition) and untreated cells (100% inhibition) and the percentage of ATF4 inhibition was calculated.
Accordingly, inhibition of ATF4 expression as a result of the test compound indicates suppression of the ISR pathway.

[2] = tested on: Chinese hamster ovary (CHO) cells; assay: Protein synthesis assay (puromycin incorporation, western blot); type: cell-based; details: 2 hours, media alone = 100%; for activity at 1 µM: Cricetulus griseus, unstressed CHO cells (without Tg), 1 μM test compound, read-out: % Protein synthesis relative to untreated (1 μM test compound); for % Recovery of protein synthesis (1 μM test compound): stressed CHO cells, 300 nM Tg plus 1 μM test compound, Tg alone = 0%
Method: Chinese hamster ovary (CHO) cells were maintained at 37° C. and 5% CO2 in Dulbecco's Modified Eagle's Media (DMEM) supplemented with 10% fetal bovine serum, 2 mM L-glutamine, 100 U/ml penicillin, and 100 μg/ml streptomycin. After reaching 80% of confluence, cells were detached and seeded on 6 well plates in complete media, allowed to recover overnight and treated for 2 hours with 1 μM of the test compound (to assess protein synthesis levels in unstressed condition), or for 2 hours with 300 nM Tg in the presence of 1 μM of the test compound (to assess the recovery of protein synthesis in a stressed condition). Cells with Tg alone were used as controls.
After the 2 hours treatments, media were replaced by adding 10 μg/ml puromycin (Sigma Aldrich #P8833) in complete media for 30 min. Media were removed and cells were lysed with SDS-PAGE lysis buffer. Lysates were transferred to 1.5 ml tubes and sonicated for 3 min and total protein amount were quantified using BCA Protein Assay Kit (Pierce). Equal amount of protein (30 μg) was loaded on SDS-PAGE gels. Proteins were transferred onto […] PVDF membranes (BioRad) and probed with primary antibodies diluted in Tris-buffered saline supplemented with 0.1% Tween 20 (Merck #S6996184 505) and 3% bovine serum albumin (Rockland #BSA-50).
Puromycin (12D10) (Merck #MABE343) and j-actin (Sigma Aldrich #A5441) antibodies were used as primary antibody. A HRP-conjugated secondary antibody (Rockland) was employed to detect immune-reactive bands using enhanced chemiluminescence (ECL Western Blotting Substrate, Pierce). Quantification of protein bands was done by densitometry using ImageJ software.
Percent increase of protein synthesis in unstressed cells (without Tg treatment) in the presence of media alone or certain test compounds is shown in Table 3. The percentage levels were normalized to the media alone condition, which correspond to 100% protein synthesis.
Percent recovery of protein synthesis in stressed cells (with Tg treatment) due to the test compounds at 1 μM is also shown in Table 3. The levels were normalized to the media alone and Tg alone conditions, which correspond to 100% and 0% respectively.

Structure (SMILES): NC(COc1ccc(Cl)c(F)c1)CN1CCC(NC(=O)c2ccc3cc(Cl)ccc3n2)CC1 (centres unmarked) [Compound 1, N-(1-(2-amino-3-(4-chloro-3-fluorophenoxy)propyl)piperidin-4-yl)-6-chloroquinoline-2-carboxamide]
- IC50 [1]: > 1000 nM
- activity at 1 µM [2]: 167%
- % Recovery of protein synthesis (1 μM test compound) [2]: 233.4%

Structure (SMILES): O=C(COc1ccc(Cl)c(F)c1)NC1CC2CCC1CN2CC(O)COc1ccc(Cl)c(F)c1 (centres unmarked) [Compound 2, 2-(4-chloro-3-fluorophenoxy)-N-(2-(3-(4-chloro-3-fluorophenoxy)-2-hydroxypropyl)-2-azabicyclo[2.2.2]octan-5-yl)acetamide]
- IC50 [1]: < 1000 nM
- activity at 1 µM [2]: 98.3%
- % Recovery of protein synthesis (1 μM test compound) [2]: 252.0%

Structure (SMILES): O=C(COc1ccc(Cl)c(F)c1)N[C@H]1CC[C@H](NC(=O)c2nc3ccc(Cl)cc3[nH]2)CC1 [Compound 3, trans-6-chloro-N-(4-(2-(4-chloro-3-fluorophenoxy)acetamido)cyclohexyl)-1H-benzo[d]imidazole-2-carboxamide]
- IC50 [1]: < 1000 nM
- activity at 1 µM [2]: 120%
- % Recovery of protein synthesis (1 μM test compound) [2]: 109.9%

Structure (SMILES): O=C(NC1CCN(CC(O)COc2ccc(Cl)c(F)c2)CC1)c1nc2ccc(Cl)cc2[nH]1 (centres unmarked) [Compound 4, 6-chloro-N-(1-(3-(4-chloro-3-fluorophenoxy)-2-hydroxypropyl)piperidin-4-yl)-1H-benzo[d]imidazole-2-carboxamide]
- IC50 [1]: < 1000 nM
- activity at 1 µM [2]: 164%
- % Recovery of protein synthesis (1 μM test compound) [2]: 246.6%

Structure (SMILES): O=C(COc1ccc(Cl)c(F)c1)NCC1CCN(CC(O)COc2ccc(Cl)c(F)c2)CC1 (centres unmarked) [Compound 5, 2-(4-chloro-3-fluorophenoxy)-N-((1-(3-(4-chloro-3-fluorophenoxy)-2-hydroxypropyl)piperidin-4-yl)methyl)acetamide]
- IC50 [1]: > 1000 nM
- activity at 1 µM [2]: 82.5%
- % Recovery of protein synthesis (1 μM test compound) [2]: 71.9%

Structure (SMILES): O=C(NCC1CCN(CC(O)COc2ccc(Cl)c(F)c2)CC1)c1cc2cc(Cl)ccc2o1 (centres unmarked) [Compound 6, 5-chloro-N-((1-(3-(4-chloro-3-fluorophenoxy)-2-hydroxypropyl)piperidin-4-yl)methyl)benzofuran-2-carboxamide]
- IC50 [1]: < 1000 nM
- activity at 1 µM [2]: 179%

Structure (SMILES): O=C(NCC1CCN(CC(O)COc2ccc(Cl)c(F)c2)CC1)c1ccc2cc(Cl)ccc2n1 (centres unmarked) [Compound 7, 6-chloro-N-((1-(3-(4-chloro-3-fluorophenoxy)-2-hydroxypropyl)piperidin-4-yl)methyl)quinoline-2-carboxamide]
- IC50 [1]: > 1000 nM
- activity at 1 µM [2]: 114%
- % Recovery of protein synthesis (1 μM test compound) [2]: 131.9%

Structure (SMILES): O=C(N[C@H]1CC[C@H](NCC(O)COc2ccc(Cl)cc2)CC1)c1nc2ccc(Cl)cc2[nH]1 (stereo partly drawn) [Compound 8, trans-6-chloro-N-(4-((3-(4-chlorophenoxy)-2-hydroxypropyl)amino)cyclohexyl)-1H-benzo[d]imidazole-2-carboxamide]
- IC50 [1]: > 1000 nM
- activity at 1 µM [2]: 175%
- % Recovery of protein synthesis (1 μM test compound) [2]: 128.3%

Structure (SMILES): O=C(COc1ccc(Cl)c(F)c1)NC[C@H]1CC[C@H](NC(=O)COc2ccc(Cl)c(F)c2)CC1 [Compound 9, trans-2-(4-chloro-3-fluorophenoxy)-N-((4-(2-(4-chloro-3-fluorophenoxy)acetamido)cyclohexyl)methyl)acetamide]
- IC50 [1]: 72.4 nM
- activity at 1 µM [2]: 119%
- % Recovery of protein synthesis (1 μM test compound) [2]: 26.1%

Structure (SMILES): O=C(COc1ccc(Cl)c(F)c1)NC[C@H]1CC[C@H](NC(=O)c2ccc3cc(Cl)ccc3n2)CC1 [Compound 12, trans-6-chloro-N-(4-((2-(4-chloro-3-fluorophenoxy)acetamido)methyl)cyclohexyl)quinoline-2-carboxamide]
- IC50 [1]: 120 nM
- activity at 1 µM [2]: 200%
- % Recovery of protein synthesis (1 μM test compound) [2]: 187.4%

Structure (SMILES): O=C(COc1ccc(Cl)c(F)c1)NC[C@H]1CC[C@H](NC(=O)c2cc3cc(Cl)ccc3o2)CC1 [Compound 13, trans-5-chloro-N-(4-((2-(4-chloro-3-fluorophenoxy)acetamido)methyl)cyclohexyl)benzofuran-2-carboxamide]
- IC50 [1]: 19 nM
- activity at 1 µM [2]: 129%
- % Recovery of protein synthesis (1 μM test compound) [2]: 120.4%

Structure (SMILES): O=C(COc1ccc(Cl)c(F)c1)NC[C@H]1CC[C@H](NCC(O)COc2ccc(Cl)c(F)c2)CC1 (stereo partly drawn) [Compound 14, trans-2-(4-chloro-3-fluorophenoxy)-N-((4-((3-(4-chloro-3-fluorophenoxy)-2-hydroxypropyl)amino)cyclohexyl)methyl)acetamide]
- IC50 [1]: > 10000 nM
- activity at 1 µM [2]: 150%
- % Recovery of protein synthesis (1 μM test compound) [2]: 53.2%

Structure (SMILES): O=C(COc1ccc(Cl)cc1)N[C@H]1CC[C@H](CNC(=O)c2cc3cc(Cl)ccc3o2)CC1 [Compound 15, trans-5-chloro-N-((4-(2-(4-chlorophenoxy)acetamido)cyclohexyl)methyl)benzofuran-2-carboxamide]
- IC50 [1]: 1.45 nM
- activity at 1 µM [2]: 204%
- % Recovery of protein synthesis (1 μM test compound) [2]: 176.3%

Structure (SMILES): COc1ccc2oc(C(=O)NC[C@H]3CC[C@H](NC(=O)COc4ccc(Cl)c(F)c4)CC3)cc2c1 [Compound 16, trans-N-((4-(2-(4-chloro-3-fluorophenoxy)acetamido)cyclohexyl)methyl)-5-methoxybenzofuran-2-carboxamide]
- IC50 [1]: 5.25 nM
- activity at 1 µM [2]: 147%
- % Recovery of protein synthesis (1 μM test compound) [2]: 102.4%

Structure (SMILES): O=C(COc1ccc(Cl)c(F)c1)N[C@H]1CC[C@H](CNC(=O)c2ccc(Cl)cc2)CC1 [Compound 17, trans-4-chloro-N-((4-(2-(4-chloro-3-fluorophenoxy)acetamido)cyclohexyl)methyl)benzamide]
- IC50 [1]: 2.36 nM
- activity at 1 µM [2]: 96.5%
- % Recovery of protein synthesis (1 μM test compound) [2]: 49.5%

Structure (SMILES): O=C(COc1ccc(Cl)c(F)c1)N[C@H]1CC[C@H](CNC(=O)c2ccc(OC(F)(F)F)cc2)CC1 [Compound 18, trans-N-((4-(2-(4-chloro-3-fluorophenoxy)acetamido)cyclohexyl)methyl)-4-(trifluoromethoxy)benzamide]
- IC50 [1]: 5.63 nM
- activity at 1 µM [2]: 105%
- % Recovery of protein synthesis (1 μM test compound) [2]: 60.0%

Structure (SMILES): O=C(COc1ccc(Cl)c(F)c1)N[C@H]1CC[C@H](CNC(=O)c2ccc(Cl)cn2)CC1 [Compound 19, trans-5-chloro-N-((4-(2-(4-chloro-3-fluorophenoxy)acetamido)cyclohexyl)methyl)picolinamide]
- IC50 [1]: 20.1 nM
- activity at 1 µM [2]: 131%
- % Recovery of protein synthesis (1 μM test compound) [2]: 32.5%

Structure (SMILES): O=C(COc1ccc(Cl)c(F)c1)N[C@H]1CC[C@H](CNC(=O)c2ccc(C(F)(F)F)cn2)CC1 [Compound 20, trans-N-((4-(2-(4-chloro-3-fluorophenoxy)acetamido)cyclohexyl)methyl)-5-(trifluoromethyl)picolinamide]
- IC50 [1]: 2.43 nM
- activity at 1 µM [2]: 75.6%
- % Recovery of protein synthesis (1 μM test compound) [2]: 34.8%

Structure (SMILES): O=C(COc1ccc(Cl)c(F)c1)N[C@H]1CC[C@H](CNC(=O)c2cnc(C(F)F)cn2)CC1 [Compound 21, trans-N-((4-(2-(4-chloro-3-fluorophenoxy)acetamido)cyclohexyl)methyl)-5-(difluoromethyl)pyrazine-2-carboxamide]
- IC50 [1]: 17.8 nM
- activity at 1 µM [2]: 67.8%
- % Recovery of protein synthesis (1 μM test compound) [2]: 11.4%
